Legend:
[1] = Cyclic voltammetry of the complexes in aqueous buffer (PBS); assay type: physicochemical; settings: for EOX: arene chromium tricarbonyl complexes, aqueous electrochemistry; for potential of the voltammetric wave: manganese complexes in aqueous buffer (PBS)
[2] = Cyclic voltammetry of screen-printed carbon electrodes containing the complex; assay type: physicochemical; settings: for oxidation wave potential: screen-printed carbon electrodes, scan rates 50 and 100 mV/s
Experimental: (§1) Screen-printed electrodes incorporating Compound 6 were produced from an organic carbon ink containing the chromium complex at a level of 3.5 mg/g ink. FIG. 2a comprises cyclic voltammograms of electrodes containing the chromium complex Compound 6 at 50 mV/s and 0.2 μA/cm in PBS, and FIG. 2b the catalytic wave upon addition of 100 μl glucose oxidase recorded at 20 mV/s and 0.5 μA/cm. […] From FIG. 2b, it is seen that GOD mediation occurs on applying mixtures of enzyme and glucose to the electrodes, with small catalytic currents of about 1 μA.
Further work with the dithiocarbamate complexes Compounds 10 to 12 was carried out with screen-printed carbon electrodes produced from carbon inks mixed with each of the complexes. […] Catalytic currents in the region of 4 μA were recorded in the presence of GOD and glucose. Variable but increased currents of up to 29 μA were obtained with 0.1 M glucose when the enzyme was confined in the carbon electrode with the mediator, see FIG. 9.

glucose oxidase (GOD) [3] = target: T1, glucose oxidase (GOD) (Aspergillus niger, UniProt P13006); experiment: Mediation to glucose oxidase with screen-printed carbon electrodes containing the mediator; assay type: biochemical
Experimental: (§2) The phosphate buffer solution (PBS) of 0.15 M phosphate (with 0.2 M sodium chloride as supporting electrolyte), pH 7.0, containing 0.1 M glucose was prepared using Analar reagents from Merck BDH. The solution was stored overnight at 4° C. prior to use to allow equilibration of the α- and β-anomers. Glucose oxidase (EC 1.1.3.4 from Aspergillus niger) was supplied by Sturge Enzymes. Horseradish peroxidase was obtained from Biozyme.
as §1
Further work with the dithiocarbamate complexes Compounds 10 to 12 was carried out with screen-printed carbon electrodes produced from carbon inks mixed with each of the complexes. […] Catalytic currents in the region of 4 μA were recorded in the presence of GOD and glucose. […]

[4] = target: T2, Horseradish peroxidase (HRP) (Armoracia rusticana, UniProt P00433); experiment: Mediation to horseradish peroxidase, rotating ring-disk voltammetry; assay type: biochemical; settings: mediator 0.5 mM, HRP 280 U, ring poised at -100 mV, disk scanned -100 to -600 mV
T2 sequence (P00433 31-338): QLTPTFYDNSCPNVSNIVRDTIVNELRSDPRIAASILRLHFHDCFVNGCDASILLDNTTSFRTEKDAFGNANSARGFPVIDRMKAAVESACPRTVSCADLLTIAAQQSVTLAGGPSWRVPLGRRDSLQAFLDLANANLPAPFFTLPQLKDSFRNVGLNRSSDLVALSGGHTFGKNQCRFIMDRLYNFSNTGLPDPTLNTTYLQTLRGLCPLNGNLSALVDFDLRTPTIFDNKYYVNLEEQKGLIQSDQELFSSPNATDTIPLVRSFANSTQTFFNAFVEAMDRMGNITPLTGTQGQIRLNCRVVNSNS
Experimental: as §2
The ability of the β-cyclodextrin adduct of the manganese complex Compound 10 to mediate with […] (HRP) was assessed by comparing it with 1,1'-dimethylferrocene ethanolamine using rotating ring-disk voltammetry according to a literature method (Anal. Chem., 62 (1990) 2429). Experiments were carded out using a glass cell (14 ml capacity) containing a platinum counter electrode with a calomel reference electrode. A gold-gold ring-disk electrode, rotated at 4 Hz, was immersed in a phosphate-buffered saline solution of the mediator (0.5 mM) containing HRP (280 U). The catalytic ring current was then measured while poising the ring electrode at -100 mV and scanning the disk electrode from -100 to -600mV to generate hydrogen peroxide.

glucose oxidase (GOD) [5] = target: T1, glucose oxidase (GOD); experiment: Mediation to glucose oxidase in solution (catalytic wave, enzyme titration in 0.1 M glucose/PBS); assay type: biochemical
[6] = pH 7
glucose oxidase (GOD) [7] = target: T1, glucose oxidase (GOD); settings: literature value (Anal. Chem., 56 (1984) 667); cited from earlier work
[8] = cited from earlier work
[9] = Solubility / stability in aqueous buffer; settings: aqueous buffer / water
[10] = complex in aqueous buffer (PBS)
[11] = 0.5 mM in PBS with added β-cd (0.5-5.0 mM)

T1 sequence (P13006 17-605): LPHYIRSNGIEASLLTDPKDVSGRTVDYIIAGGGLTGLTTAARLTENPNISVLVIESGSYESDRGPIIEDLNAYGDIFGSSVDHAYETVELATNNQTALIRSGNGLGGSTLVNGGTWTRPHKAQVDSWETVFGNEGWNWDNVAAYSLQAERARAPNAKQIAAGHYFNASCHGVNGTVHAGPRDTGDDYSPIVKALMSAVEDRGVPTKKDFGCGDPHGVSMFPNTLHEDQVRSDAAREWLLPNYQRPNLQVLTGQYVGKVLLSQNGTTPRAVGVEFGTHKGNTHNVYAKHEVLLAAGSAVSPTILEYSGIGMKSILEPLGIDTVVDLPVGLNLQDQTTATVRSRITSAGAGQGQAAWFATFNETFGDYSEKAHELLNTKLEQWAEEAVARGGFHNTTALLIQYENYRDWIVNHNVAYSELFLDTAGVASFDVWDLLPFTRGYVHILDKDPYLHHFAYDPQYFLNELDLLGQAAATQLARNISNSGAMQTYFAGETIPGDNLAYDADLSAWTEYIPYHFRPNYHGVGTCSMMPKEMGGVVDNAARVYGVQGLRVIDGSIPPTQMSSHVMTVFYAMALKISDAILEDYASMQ

In the case of `Cc1c(C)c(N)c(C)c(C)c1N.[C-]#[O+].[C-]#[O+].[C-]#[O+].[Cr]` [Compound 6], the EOX [1] is reported as “+40 mV”, the “reversibility of the voltammetric wave” value [1, 10] is reported as “reversible wave” and the mid-point potential ([2]; screen-printed electrodes, 3.5 mg complex/g ink, PBS applied) is reported as -15 mV. The “reversibility of the voltammetric wave” value ([2]; screen-printed electrodes, PBS applied) was “reversible wave” and the catalytic current (glucose oxidase (GOD) [3]; mixtures of GOD and glucose applied to screen-printed electrodes containing the mediator) was “about 1 μA”.
For “[MeCpMn(NO){(SCCN)2 }][NEt4 ] [Compound 16]”, the E1/2 [1, 11] was “+5 mV”, the ΔEp [1, 11] was 65 mV and the “reversibility of the voltammetric wave” value ([1]; 0.5 mM in buffer with added β-cd (0.5-5.0 mM)) was “reversible wave”. It also gave an Eox ([1]; 0.6 mM in PBS, 50 mV/s) of -25 mV.
For `Nc1cc(N)cc(N)c1.[C-]#[O+].[C-]#[O+].[C-]#[O+].[Cr]` [Compound 7], the EOX [1] was “+50 mV”.
In the case of [MeCpMn(NO)(CO)2 ]PF6 [Compound 9], the “oxidation potential of the species formed by decomposition” value ([1]; aqueous buffer, irreversibly oxidized) is reported as “+230 mV”.
For [MeCpMn(NO)(S2 CNEt2)] [Compound 11], the oxidation wave potential [2] was “+300 mV”.
For “1,1'-dimethylferrocene ethanolamine [reference compound]”, the “catalytic ring current, comparison of mediators” value [4] was “identical catalytic currents”.
In the case of [MeCpMn(NO)(phen)]PF6 [Compound 15], the “reversibility of the voltammetric wave” value [1, 10] is reported as “irreversible electrochemistry” and the “potential of the voltammetric wave” value [1] is reported as “about +600 mV”.
For [MeCpMn(NO)(S2 CNMe2)] [Compound 10], the oxidation wave potential [2] was “+240 mV” and the catalytic current (glucose oxidase (GOD) [3]; 0.1 M glucose, enzyme confined in the carbon electrode with the mediator) was “up to 29 μA”.
For [MeCpMn(NO)(S2 CNMe2)]β-cyclodextrin, the ΔEp ([1]; 0.1 M glucose/PBS) was 70 mV, the “reversibility of the voltammetric wave” value [1, 10] was “reversible wave” and the “potential of the voltammetric wave” value [1] was “+255 mV”. The “icat (catalytic wave)” value (glucose oxidase (GOD) [5]; upon addition of GOD and glucose, 0.1 M glucose/PBS) was 9.7 μA, the “catalytic ring current, comparison of mediators” value [4] was “identical catalytic currents” and the “solubility in PBS” value [6] was “at least 0.5 mM”.
With [MeCpMn(NO)(CN)2 ]Na [Compound 13] the “reversibility of the voltammetric wave” value [1, 10] was “reversible wave” and the “potential of the voltammetric wave” value [1] was “+440 mV”.
With `Cc1cc[cH-]c1.[C-]#[O+].[C-]#[O+].[C-]#[O+].[Mn]` [Compound 8, (methylcyclopentadienyl)manganese tricarbonyl] the “second order rate coefficient for the oxidation of reduced GOD” value (glucose oxidase (GOD) [5]; 0 to 25 μl GOD titrated into mediator in 0.1 M glucose/PBS, from icat versus [GOD]^1/2) was 210000 M⁻¹ s⁻¹.
In the case of `Nc1ccc(N)cc1.[C-]#[O+].[C-]#[O+].[C-]#[O+].[Cr]` [Compound 4], the EOX [1] is reported as “+135 mV”.
In the case of `COc1ccc(N)c(OC)c1.[C-]#[O+].[C-]#[O+].[C-]#[O+].[Cr]` [Compound 5], the EOX [1] is reported as “+170 mV”.
With `CN(C)c1ccccc1.[C-]#[O+].[C-]#[O+].[C-]#[O+].[Cr]` [Compound 1] the EOX [1] was “+250 mV”.
For ferrocene monocarboxylic acid, the “second order rate constant for the oxidation of reduced GOD” value (glucose oxidase (GOD) [7]) is listed as 200000 M⁻¹ s⁻¹.
In the case of `[C-]#[O+].[C-]#[O+].[C-]#[O+].[Mn].[c-]1[c-][c-][cH-][c-]1` [Cyclopentadienyl manganese tricarbonyl], the “oxidation potential, more positive than ferrocene” value ([8]; in acetonitrile, relative to ferrocene) is listed as ~1.2 V.
With [MeCpMn(NO)(bipy)]PF6 [Compound 14] the “reversibility of the voltammetric wave” value [1, 10] was “irreversible electrochemistry” and the “potential of the voltammetric wave” value [1] was “about +600 mV”.
For `[C-]#[O+].[C-]#[O+].[C-]#[O+].[Cr].c1ccccc1` [benzene chromium tricarbonyl], the half wave potential ([8]; in dichloromethane) is listed as “+710 mV vs SCE” and the “aqueous solubility (in words)” value [9] is listed as “negligible solubility in buffer”.
With `OCCN(CCO)c1ccccc1.[C-]#[O+].[C-]#[O+].[C-]#[O+].[Cr]` [Compound 3] the EOX [1] was “+250 mV”.
